Like-named read-outs stand apart in the source and are kept apart here.
Molecular target: T1, delF508-CFTR (Homo sapiens, UniProt P13569, DEL508-508)
T1 construct: endogenous in cells; host or cells: CFBE41o- human CF bronchial epithelial cells (delF508 homozygous)
Test: SPQ halide-sensitive fluorescence dye assay for rescue of halide efflux (8-point concentration-response)
Format: cell-based
Settings: for EC50: read-out: SPQ EC50; for potency and efficacy compared with VX-809 in SPQ assay: versus VX-809
Description: The method of profiling can include detecting the rescue of halide efflux from a cell. The step of detecting a rescue of halide efflux from the cell can be monitored using the halide quenched dye 6-methoxy-N-(3-sulfopropyl)-quinolinium (SPQ, Molecular Probes Inc., Eugene, Oreg.). In this method, cells are treated with a compound as described herein for a period of time (e.g., 48 hours). The rescue or correction of halide efflux is then detected using the SPQ assay with the halide dye. […] Optionally, the halide efflux is chloride efflux. The method of screening can further comprise performing the method with multiple concentrations of the compound.
The compounds were initially subjected to the SPQ halide-sensitive fluorescence dye profiling assay for rescue or correction of membrane chloride ion permeability or transport with an 8-point concentration-response curve. The EC50 values for the compounds described herein were determined using SPQ (Table 1). The ΔSPQ value was calculated by determining the difference between the maximum and minimum SPQ values for the compounds.
To perform the SPQ high throughput screening assay, CFBE41o-cells were seeded into 96-well microtiter plates and were loaded with the fluorescent halide-sensitive dye, SPQ, in serum-containing culture medium. Certain wells were loaded with known positive control corrector molecules, including the industry standard Vertex 809 (VX-809; Vertex Pharmaceuticals, Cambridge, Mass.) at 3 μM, which is the maximally effective profiling dose for VX-809. The test compounds were loaded into wells and were tested in triplicate wells at a 10 μM dose and incubated over 48 hours at room temperature. During the 48 hour period, SPQ was absorbed. Plates were washed in a sodium chloride (NaCl) based Ringer and read once over two minutes to set the baseline SPQ fluorescence activity. Then, NaCl was replaced by sodium nitrate (NaNO3) based Ringer. The plates were read twice over four minutes. The primary high throughput screen (HTS) data were analyzed to detect any function of rescued delF508-CFTR under basal conditions. The plate was read up to two times to complete the SPQ HTS assay.

T1 sequence (P13569 with tags, fused parts or gaps DEL508-508): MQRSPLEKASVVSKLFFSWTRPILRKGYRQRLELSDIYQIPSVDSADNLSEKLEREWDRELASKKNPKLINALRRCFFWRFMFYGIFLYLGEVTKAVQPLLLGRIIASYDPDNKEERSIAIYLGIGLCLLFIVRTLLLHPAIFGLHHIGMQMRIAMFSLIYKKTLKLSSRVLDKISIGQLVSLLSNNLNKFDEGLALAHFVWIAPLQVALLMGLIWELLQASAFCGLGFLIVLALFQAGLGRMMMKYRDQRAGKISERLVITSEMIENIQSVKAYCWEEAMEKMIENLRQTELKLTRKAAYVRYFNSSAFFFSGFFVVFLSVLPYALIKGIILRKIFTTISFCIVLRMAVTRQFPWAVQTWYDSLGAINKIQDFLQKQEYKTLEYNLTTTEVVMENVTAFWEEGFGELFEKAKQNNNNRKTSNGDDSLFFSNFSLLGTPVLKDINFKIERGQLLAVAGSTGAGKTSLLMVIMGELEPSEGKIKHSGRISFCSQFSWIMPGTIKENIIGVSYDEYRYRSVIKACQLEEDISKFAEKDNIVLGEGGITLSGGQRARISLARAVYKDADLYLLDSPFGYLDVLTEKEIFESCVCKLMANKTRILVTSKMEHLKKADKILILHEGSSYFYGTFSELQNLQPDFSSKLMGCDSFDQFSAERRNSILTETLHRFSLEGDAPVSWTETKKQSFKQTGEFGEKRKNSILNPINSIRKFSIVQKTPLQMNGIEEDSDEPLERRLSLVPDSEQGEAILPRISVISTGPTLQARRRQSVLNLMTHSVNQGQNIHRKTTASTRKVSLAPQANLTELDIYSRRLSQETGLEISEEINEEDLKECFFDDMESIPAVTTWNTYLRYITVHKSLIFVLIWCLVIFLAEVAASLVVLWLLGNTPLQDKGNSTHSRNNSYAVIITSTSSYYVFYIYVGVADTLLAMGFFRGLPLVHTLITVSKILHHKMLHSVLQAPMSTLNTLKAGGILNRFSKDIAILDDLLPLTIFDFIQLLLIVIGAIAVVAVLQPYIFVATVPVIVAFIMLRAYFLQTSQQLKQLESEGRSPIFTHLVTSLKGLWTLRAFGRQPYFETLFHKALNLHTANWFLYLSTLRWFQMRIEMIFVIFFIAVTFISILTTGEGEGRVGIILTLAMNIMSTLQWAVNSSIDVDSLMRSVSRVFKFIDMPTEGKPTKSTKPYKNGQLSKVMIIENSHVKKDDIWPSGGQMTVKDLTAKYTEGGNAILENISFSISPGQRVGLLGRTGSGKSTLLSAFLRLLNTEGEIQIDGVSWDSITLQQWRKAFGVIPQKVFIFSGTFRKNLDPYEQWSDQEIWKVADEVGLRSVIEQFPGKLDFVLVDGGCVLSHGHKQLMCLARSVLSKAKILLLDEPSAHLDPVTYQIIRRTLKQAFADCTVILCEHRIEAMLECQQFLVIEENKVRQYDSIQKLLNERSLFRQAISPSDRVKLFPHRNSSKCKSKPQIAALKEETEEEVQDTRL

Cn1c(=O)c2nc(N3CCN(CCO)CC3)[nH]c2n(C)c1=O [Compound B-14]
SPQ EC50 (CFBE41o- cells, 48 h): No effect

CCn1c(=O)c2c(nc3oc(C(C)(C)C)cn32)n(C)c1=O [Compound II-3]
ΔSPQ (difference between maximum and minimum SPQ values) (CFBE41o- cells, 48 h): 3935 RFU | EC50 (CFBE41o- cells, 48 h): 8.6 µM | ΔSPQ (Trial 2): (Trial 2: 4413) RFU | EC50 (Trial 2): 12.7 µM | potency and efficacy compared with VX-809 in SPQ assay: superior potency and efficacy to VX-809

C=CCN1N=C(C)Cn2c1nc1c2c(=O)n(CC(C)C)c(=O)n1C [Compound V-7]
ΔSPQ (difference between maximum and minimum SPQ values) (CFBE41o- cells, 48 h): 12223 RFU | EC50 (CFBE41o- cells, 48 h): 23 µM

C=C(C)Cn1c(=O)c2c(nc3oc(C(C)(C)C)cn32)n(C)c1=O [II-4]
ΔSPQ (difference between maximum and minimum SPQ values) (CFBE41o- cells, 48 h): 3625 RFU | EC50 (CFBE41o- cells, 48 h): > 30 µM

CCn1c(N2CCN(CCCc3ccccc3)CC2)nc2c1c(=O)[nH]c(=O)n2C [III-4]
ΔSPQ (difference between maximum and minimum SPQ values) (CFBE41o- cells, 48 h): 5256 RFU | EC50 (CFBE41o- cells, 48 h): > 30 µM

C=CCn1c(Oc2ccc(Br)cc2)nc2c1c(=O)n(C)c(=O)n2C [Compound III-1]
ΔSPQ (difference between maximum and minimum SPQ values) (CFBE41o- cells, 48 h): 8353 RFU | EC50 (CFBE41o- cells, 48 h): 11.1 µM

CCCCn1c(=O)c2c(nc3n2CC(C)=NN3CCC)n(C)c1=O [Compound V-4]
ΔSPQ (difference between maximum and minimum SPQ values) (CFBE41o- cells, 48 h): 12028 RFU | EC50 (CFBE41o- cells, 48 h): 7 µM | potency and efficacy compared with VX-809 in SPQ assay: superior potency and efficacy to VX-809

COc1ccc(C(=O)N2CCN(c3nc4c(=O)n(C)c(=O)n(C)c4[nH]3)CC2)cc1 [Compound B-7.12]
EC50 (CFBE41o- cells, 48 h): 6.2 µM

Cn1c(=O)c2[nH]c(N3CCN(c4ccncc4)CC3)nc2n(C)c1=O [Compound B-4]
SPQ EC50 (CFBE41o- cells, 48 h): No effect

Cn1c(=O)c2nc(N3CCN(Cc4ccc(OC(F)(F)F)cc4)CC3)[nH]c2n(C)c1=O [Compound B-7.6]
SPQ EC50 (CFBE41o- cells, 48 h): No effect

CCn1c(=O)c2c(nc3n(-c4cccc(OC)c4)c(C)c(C)n23)n(C)c1=O [Compound I-29]
ΔSPQ (difference between maximum and minimum SPQ values) (CFBE41o- cells, 48 h): 10298 RFU | EC50 (CFBE41o- cells, 48 h): 9.6 µM

Cc1cn2c3c(=O)n(C)c(=O)n(C)c3nc2n1-c1ccccn1 [Compound A-4]
SPQ EC50 (CFBE41o- cells, 48 h): No effect

Cn1c(=O)c2[nH]c(N3CCN(c4ccccc4O)CC3)nc2n(C)c1=O [Compound III-2]
ΔSPQ (difference between maximum and minimum SPQ values) (CFBE41o- cells, 48 h): 9814 RFU | EC50 (CFBE41o- cells, 48 h): 3.6 µM | potency and efficacy compared with VX-809 in SPQ assay: superior potency and efficacy to VX-809

CCC(C)n1c(C)c(C)n2c3c(=O)n(CC)c(=O)n(C)c3nc12 (stereo not drawn) [Compound I-58]
ΔSPQ (difference between maximum and minimum SPQ values) (CFBE41o- cells, 48 h): 3361 RFU | EC50 (CFBE41o- cells, 48 h): 8.4 µM

C/C=C/Cn1c(=O)c2c(nc3n(-c4ccccc4O)c(C)c(C)n23)n(C)c1=O [Compound I-19]
ΔSPQ (difference between maximum and minimum SPQ values) (CFBE41o- cells, 48 h): 2058 RFU | EC50 (CFBE41o- cells, 48 h): 3.2 µM

Cc1cn2c3c(=O)n(C)c(=O)n(C)c3nc2n1-c1cccnc1 [Compound A-5]
SPQ EC50 (CFBE41o- cells, 48 h): No effect

CCn1c(=O)c2c(nc3n(-c4ccccc4)c(C)c(C)n23)n(C)c1=O [Compound I-10]
ΔSPQ (difference between maximum and minimum SPQ values) (CFBE41o- cells, 48 h): 4005 RFU | EC50 (CFBE41o- cells, 48 h): 4 µM

CCCN1N=C(C)Cn2c1nc1c2c(=O)n(CCC)c(=O)n1C [Compound V-13]
ΔSPQ (difference between maximum and minimum SPQ values) (CFBE41o- cells, 48 h): 4602 RFU | EC50 (CFBE41o- cells, 48 h): > 30 µM

C=CCn1c(=O)c2c(nc3n(CCC)c(C)cn23)n(C)c1=O [Compound I-1]
ΔSPQ (difference between maximum and minimum SPQ values) (CFBE41o- cells, 48 h): 3801 RFU | EC50 (CFBE41o- cells, 48 h): 17.8 µM

C/C=C/Cn1c(=O)c2c(nc3n2CC(C)=NN3C(C)C)n(C)c1=O [Compound V-18]
ΔSPQ (difference between maximum and minimum SPQ values) (CFBE41o- cells, 48 h): 7507 RFU | EC50 (CFBE41o- cells, 48 h): 11.1 µM

CC1=NNc2nc3c(c(=O)n(Cc4cccc(C)c4)c(=O)n3C)n2C1C (stereo not drawn) [Compound V-11]
ΔSPQ (difference between maximum and minimum SPQ values) (CFBE41o- cells, 48 h): 2625 RFU | EC50 (CFBE41o- cells, 48 h): 11.3 µM

C=CCN1N=C(C)Cn2c1nc1c2c(=O)n(CCCC)c(=O)n1C [Compound V-6]
ΔSPQ (difference between maximum and minimum SPQ values) (CFBE41o- cells, 48 h): 8952 RFU | EC50 (CFBE41o- cells, 48 h): > 30 µM

COc1ccc(N2CC(C)Cn3c2nc2c3c(=O)n(C)c(=O)n2C)cc1 (stereo not drawn) [IV-2]
ΔSPQ (difference between maximum and minimum SPQ values) (CFBE41o- cells, 48 h): 2279 RFU | EC50 (CFBE41o- cells, 48 h): > 30 µM

Cc1ccc(C)c(Cn2c(=O)c3c(nc4[nH]c(C)c(C)n43)n(C)c2=O)c1 [Compound I-11]
ΔSPQ (difference between maximum and minimum SPQ values) (CFBE41o- cells, 48 h): 3705 RFU | EC50 (CFBE41o- cells, 48 h): > 30 µM

C=CCn1c(=O)c2c(nc3n(CC(C)C)c(C)c(C)n23)n(C)c1=O [Compound I-38]
ΔSPQ (difference between maximum and minimum SPQ values) (CFBE41o- cells, 48 h): 8563 RFU | EC50 (CFBE41o- cells, 48 h): 7.8 µM

CCn1c(=O)c2c(nc3n(Cc4ccco4)c(C)c(C)n23)n(C)c1=O [Compound I-36]
ΔSPQ (difference between maximum and minimum SPQ values) (CFBE41o- cells, 48 h): 3375 RFU | EC50 (CFBE41o- cells, 48 h): 7.1 µM

— patent US9546176B2, “Small molecule bicyclic and tricyclic CFTR correctors” (DISCOVERYBIOMED, INC., priority 2012, dated 2017)
